Data reported in patent US20260335293A1, “USE OF NOVEL COMPOUND FOR TREATING INTRACTABLE DISEASES” (YJ CERAPEUTICS INC., priority 2023, published 2026).

Test system: neuropathic pain (mechanical allodynia) in SCI, LSS and SNI animal models
Assay: Mechanical allodynia (von Frey, 50% threshold) in SCI, LSS and SNI neuropathic pain models
Assay type: in vivo, Sprague-Dawley rats
Method: To be used as a central nerve injury animal model, a traumatic spinal cord injury (SCI) model was prepared (FIG. 1A). Specifically, 230 to 250 g of male adult Sprague-Dawley rats were anesthetized by intraperitoneal injection of chloral hydrate (500 mg/kg), and then the back and neck regions were shaved, and the spinal cord under the back and neck regions was exposed without damaging the dura mater, and a laminectomy was performed at T9 to T10 levels. To stabilize the spine, the spinous processes of T8 and T11 were fixed, and the spine was damaged by free-falling a 10 g weight from a height of 25 mm using an NYU impactor onto the back surface of the exposed spinal cord and then the rats were left in a temperature and humidity-controlled chamber overnight while covering the muscles and skin. After surgery, the rats were subcutaneously injected with a supplement solution (5 ml, lactated ringer) and injected with antibiotics (gentamicin, 5 mg/kg, intramuscular injection) once daily for 5 days. The body weight, remaining food, and the weight of water were confirmed and recorded for all animals, and the bladder was emptied twice daily by passive bladder massage until reflex micturition was established. At this time, a Sham group was a group that was subjected to only laminectomy without damage.
To be used as a peripheral nerve injury animal model, a lumbar spinal stenosis (LSS) model was prepared (FIG. 1B). Specifically, 260 to 280 g of adult male Sprague-Dawley rats were anesthetized with intraperitoneal injection of chloral hydrate (500 mg/kg), the back region was shaved, and then the spinal plate was exposed at L4 to S2 levels. After removing the ligamentous section between L4 and L5, a trapezoidal silicone block (1.00 mm long×1.3 to 1.2 mm wide×1.0 mm high) was inserted into the epidural space below the L5 and L6 spinal plates without damaging the dural sac. At this time, a Sham group was a group that was subjected to only posterior […] on the animal without inserting a silicone block.
To be used as a peripheral nerve injury animal model, a sciatic nerve injury (SNI) model was prepared (FIG. 1C). Specifically, 200 to 220 g of male adult Sprague-Dawley rats were anesthetized by intraperitoneal injection of chloral hydrate (500 mg/kg), and then three terminal branches (tibial, common peroneal, and sural nerves) of the right sciatic nerve were approached, and the tibia nerve and the peroneal nerve were tightly ligated with 4-0 silk, and neurectomy was performed at a distal 3 mm position of the ligation site. At this time, a Sham group was a group that exposed only the sciatic nerve without damage.
In order to confirm a neuropathic pain inhibitory effect of YJ102 (Chemical Formula 1), a compound of the present disclosure, in the three nerve injury animal models prepared in Example 1 above, rats having pain on week 3 (SNI model) or week 4 (SCI model and LSS model) after surgery were selected and administered orally (p.o.) at 10 mg/kg or 20 mg/kg of YJ102 dissolved in a solution of DMSO, methyl pyrrolidinone, and water (1:1.5:1), or intraperitoneally injected (i.p. injection) at 1, 2, or 5 mg/kg of YJ102. In a positive control group, gabapentin or pregabalin dissolved in saline was intraperitoneally injected at a concentration of 5 mg/kg, and in a Vehicle group, the same amount of a solution of DMSO, methyl pyrrolidinone, and water was administered. Thereafter, in order to measure mechanical allodynia, the rats were located at the bottom of a transparent plastic box (10 cm×10 cm) on top of a wire mesh (3 mm×3 mm) and subjected to an adaptation period for approximately 20 minutes. Von-Frey filaments were applied to the soles of both paws and used with stiff nylon von-Frey monofilament series ([…], Stoelting, WoodDale, IL, USA; equivalent in grams to 0.4, 0.6, 1.0, 2.0, 4.0, 6.0, 8.0 and 15.0) with logarithmic increases in tactile (mechanical) sensitivity. […]

[1] = p.o. 10 mg/kg or 20 mg/kg, all three models (SCI, LSS, SNI)

With `CCc1ccc(N(C(=O)COC)c2nc3cc(Cl)ccc3o2)cc1` [YJ102] the “duration of analgesic effect relative to existing drugs (gabapentin, pregabalin)” value (i.p.) was “more than three times longer”, the “analgesic effect relative to gabapentin or pregabalin” value (i.p., at the same concentration as gabapentin or pregabalin) was “more than twice as high” and the “duration of analgesic effect” value [1] was at least 4 h. The “mechanical allodynia threshold increased from (time after administration)” value [1] was 30 min.
